Results on one molecule are retold here after patent US8853264B2, “Use of lignan compounds for treating or preventing inflammatory disease” (Newtree Industry Co., Ltd., priority 2005, dated 2014).

The subject of the test is edemas of the rat ears induced by TPA. Nature of the test: TPA-induced rat ear edema inhibition test. The class given is in vivo, Wistar rats. The note with it: for Edema thickness: topical in acetone 30 min after TPA, measured after 8 hours. How it is done: The anti-inflammatory activity of the lignan compound isolated and purified in <Example 1> was tested in animal models. The anti-inflammatory activity was measured by edema inhibition test on rats. As the test animals, 5-week-old Wistar rats (DaeHan Biolink Co., Ltd, Korea) were used. The animals were provided with standard pellet forming rat feed (Cheiljedang Corporation, Korea) and given freely to feed and water. Also, the animals were housed in conditions of 12-hr light/12-hr dark cycle, temperature of 25±2° C. and humidity of 60±10%. Inflammation inducing agent TPA (12-O-tetradecanoylphorbol-13-acetate; Sigma) was dissolved in acetone to a concentration of 200 μg/mL. The edemas of the rat ears were induced by applying the TPA solution locally to each of the outer and inner faces of the ear in an amount of 10 μl/ear (4 μg/ear). The macelignan purified in <Example 1> and non-steroidal anti-inflammatory drug indomethacin as a control substance were dissolved in acetone and used in amounts of 20, 200 and 2000 μg/ear. Each of the macelignan and the indomethacin was applied locally to the rat ears at 30 minutes after treatment with TPA. A control group was locally applied with acetone. The thickness of the rat ears was measured with a caliper 8 hours after treatment with each of the substances. An increase in the ear thickness in the group treated with the sample was compared to that of the group untreated with the sample, and inflammation inhibitory effect was measured by calculating percent edema inhibition.

Take `COc1ccc2c(c1)c(CC(=O)O)c(C)n2C(=O)c1ccc(Cl)cc1` [indomethacin, reference compound]: the Edema inhibition (dose 20 μg/ear) worked out at 25.0%, the Edema inhibition (dose 200 μg/ear) turned out to be 56.5% and the Edema inhibition (dose 2000 μg/ear) turned out to be 74.2%. Further, the Edema thickness reads like this: (dose 20 μg/ear) 185 ± 5 μm; (dose 200 μg/ear) 108 ± 8 μm; (dose 2000 μg/ear) 64 ± 7 μm.
